Assay results: patent US20180194762A1 (Pharmacyclics LLC, priority 2017, published 2018)
Where two headings read alike, the source gives them in different places.

Experiments:
Assay type in all cases: biochemical
panel of kinases = target: T1, panel of kinases (Homo sapiens, UniProt P51813); experiment: Inhibition of a panel of kinases (in vitro HotSpot kinase assay, 33P-ATP, 1 μM ATP), other kinases; settings: BMX wild-type, read-out: BMX-WT IC50
T1 sequence (P51813 1-675): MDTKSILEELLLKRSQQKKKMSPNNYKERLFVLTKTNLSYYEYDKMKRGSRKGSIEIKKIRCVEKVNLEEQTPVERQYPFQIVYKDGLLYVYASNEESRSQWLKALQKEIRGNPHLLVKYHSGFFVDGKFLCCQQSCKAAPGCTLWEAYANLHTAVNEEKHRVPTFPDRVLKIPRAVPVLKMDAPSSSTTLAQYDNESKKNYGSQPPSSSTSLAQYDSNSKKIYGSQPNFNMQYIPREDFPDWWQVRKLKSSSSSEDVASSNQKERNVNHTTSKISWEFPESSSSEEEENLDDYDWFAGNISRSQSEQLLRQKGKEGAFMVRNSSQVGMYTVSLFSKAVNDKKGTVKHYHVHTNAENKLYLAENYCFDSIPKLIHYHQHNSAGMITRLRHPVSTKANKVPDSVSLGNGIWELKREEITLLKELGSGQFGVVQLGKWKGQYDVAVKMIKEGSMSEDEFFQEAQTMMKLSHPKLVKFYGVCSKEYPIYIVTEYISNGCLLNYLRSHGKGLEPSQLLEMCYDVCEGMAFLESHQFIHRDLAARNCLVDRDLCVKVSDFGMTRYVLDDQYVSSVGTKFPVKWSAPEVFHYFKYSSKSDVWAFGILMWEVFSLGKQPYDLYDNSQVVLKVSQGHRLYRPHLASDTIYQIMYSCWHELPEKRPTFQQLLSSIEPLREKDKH
Summary of the method: (§1)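 Radiometric read-out: 33P transfer to a suitable substrate by each purified enzyme, ATP at 1 μM. Values are degree of inhibition.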

TEC = target: T2, TEC (Homo sapiens, UniProt P42680); experiment: Inhibition of a panel of kinases (in vitro HotSpot kinase assay, 33P-ATP, 1 μM ATP); settings: for IC50: HotSpot kinase assay, 1 μM ATP; for TEC/Btk: ratio of TEC IC50 to Btk IC50 (selectivity)
T2 sequence (P42680 1-631): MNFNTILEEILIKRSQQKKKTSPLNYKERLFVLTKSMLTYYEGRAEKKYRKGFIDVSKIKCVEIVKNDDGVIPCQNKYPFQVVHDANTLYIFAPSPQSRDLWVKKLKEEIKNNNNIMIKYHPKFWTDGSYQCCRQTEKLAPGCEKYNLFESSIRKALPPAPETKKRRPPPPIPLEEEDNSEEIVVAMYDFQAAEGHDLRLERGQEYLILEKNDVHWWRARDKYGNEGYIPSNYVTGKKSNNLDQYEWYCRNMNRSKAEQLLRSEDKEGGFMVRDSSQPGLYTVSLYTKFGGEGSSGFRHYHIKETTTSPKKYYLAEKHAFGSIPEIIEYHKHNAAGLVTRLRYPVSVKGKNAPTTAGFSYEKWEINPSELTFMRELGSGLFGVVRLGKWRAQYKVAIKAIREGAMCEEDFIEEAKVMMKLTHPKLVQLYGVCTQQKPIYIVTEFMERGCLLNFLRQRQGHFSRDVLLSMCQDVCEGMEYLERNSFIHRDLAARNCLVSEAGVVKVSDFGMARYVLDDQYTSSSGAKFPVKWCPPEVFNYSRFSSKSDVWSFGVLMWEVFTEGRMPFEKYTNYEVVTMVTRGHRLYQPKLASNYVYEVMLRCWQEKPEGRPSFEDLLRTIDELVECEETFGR
Summary of the method: as §1

Btk = target: T3, Btk (Homo sapiens, UniProt Q06187); experiment: Btk in vitro inhibitory activity (one of Method A TR-FRET, Method B electrophoretic mobility shift, Method C radiometric filter binding)
T3 construct: purified from insect cells as a full-length construct containing a N-terminal 6X-His tag; His6 (N); made in house; host or cells: insect cells (Method C)
Summary of the method: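 Three alternative formats were used. A radiometric filter-binding read used 8 nM full-length His-BTK with 0.2 mg/mL poly(Glu-Tyr) 4:1 (C); microfluidic separation of 1 μM FAM-peptide by 1 nM BTK gave IC50 from 12-point curves (B); TR-FRET at Km ATP, 0.5 nM Btk, gave Ki(app)-derived IC50 (A).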

[1] = method is one of A, B or C, not stated which, read-out: IC50 values against Btk
[2] = wild-type Btk, read-out: Btk-WT IC50

T3 sequence (Q06187 whole entry): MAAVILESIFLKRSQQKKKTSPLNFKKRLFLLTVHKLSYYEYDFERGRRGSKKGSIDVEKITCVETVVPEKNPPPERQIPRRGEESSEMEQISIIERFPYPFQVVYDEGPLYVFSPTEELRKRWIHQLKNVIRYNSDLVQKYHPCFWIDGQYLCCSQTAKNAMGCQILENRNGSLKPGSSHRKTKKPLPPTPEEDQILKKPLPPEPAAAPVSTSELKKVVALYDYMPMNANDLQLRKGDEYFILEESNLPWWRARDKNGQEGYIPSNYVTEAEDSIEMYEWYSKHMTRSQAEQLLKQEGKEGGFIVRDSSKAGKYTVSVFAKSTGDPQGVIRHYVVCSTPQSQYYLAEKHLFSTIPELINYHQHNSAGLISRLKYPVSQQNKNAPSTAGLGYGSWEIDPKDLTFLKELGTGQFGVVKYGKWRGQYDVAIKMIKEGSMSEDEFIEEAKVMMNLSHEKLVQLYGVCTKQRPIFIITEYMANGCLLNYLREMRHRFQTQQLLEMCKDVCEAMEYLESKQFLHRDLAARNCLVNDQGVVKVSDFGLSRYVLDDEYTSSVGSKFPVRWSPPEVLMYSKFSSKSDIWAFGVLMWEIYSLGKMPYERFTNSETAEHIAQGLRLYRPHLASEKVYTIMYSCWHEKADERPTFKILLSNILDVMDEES

Row | IC50 (panel of kinases) | IC50 (TEC) | TEC/Btk (TEC) | IC50 (Btk; [1]) | IC50 (Btk; [2]) | Compound
1 | 12 nM | 28 nM | 305 | < 10 nM | 0.0924 nM | C=CC(=O)N1C[C@H](Nc2n[nH]c3nccc(-c4ccc(CNC(=O)c5nc(C(C)(C)C)no5)c(F)c4)c23)CC[C@@H]1C [Example 148, 3-tert-butyl-N-{[2-fluoro-4-(3-{[(3R,6S)-6-methyl-1-(prop-2-enoyl)piperidin-3-yl]amino}-1H-pyrazolo[3,4-b]pyridin-4-yl)phenyl]methyl}-1,2,4-oxadiazole-5-carboxamide]
2 | 529 nM | 386 nM | 755 | – | 0.511 nM | CC(C)(C)c1nc(C(=O)NCc2ccc(-c3ccnc4[nH]nc(N5CCC[C@H](C(=O)O)C5)c34)cc2F)no1 [Example 252, (3S)-1-[4-(4-{[(5-tert-butyl-1,2,4-oxadiazole-3-carbonyl)amino]methyl}-3-fluorophenyl)-1H-pyrazolo[3,4-b]pyridin-3-yl]piperidine-3-carboxylic acid]
3 | 1810 nM | 1400 nM | – | – | 17.3 nM | CC(=O)N[C@@H]1CCN(c2n[nH]c3nccc(-c4ccc(CNC(=O)c5cc(C(C)(C)C#N)on5)c(F)c4)c23)C1 [Example 403, N-[(4-{3-[(3R)-3-acetamidopyrrolidin-1-yl]-1H-pyrazolo[3,4-b]pyridin-4-yl}-2-fluorophenyl)methyl]-5-(2-cyanopropan-2-yl)-1,2-oxazole-3-carboxamide]
4 | > 10000 nM | > 10000 nM | >100 | – | 10.7 nM | CC(C)(C)c1noc(C(=O)NCc2ccc(-c3ccnc4[nH]nc(N[C@H]5CCCNC5)c34)cc2F)n1 [Example 167, 3-tert-butyl-N-{[2-fluoro-4-(3-{[(3S)-piperidin-3-yl]amino}-1H-pyrazolo[3,4-b]pyridin-4-yl)phenyl]methyl}-1,2,4-oxadiazole-5-carboxamide]
5 | 4370 nM | 3170 nM | 59 | – | 53.4 nM | CC(C)(C)c1nc(C(=O)NCc2ccc(-c3ccnc4[nH]nc(N[C@H]5CC[C@H](O)CC5)c34)cc2F)no1 [Compound 21, 5-tert-butyl-N-{[2-fluoro-4-(3-{[(1r,4r)-4-hydroxycyclohexyl]amino}-1H-pyrazolo[3,4-b]pyridin-4-yl)phenyl]methyl}-1,2,4-oxadiazole-3-carboxamide]
6 | 2920 nM | 2250 nM | – | – | 3.19 nM | CC(=O)N1CC[C@H](Oc2n[nH]c3nccc(-c4ccc(CNC(=O)c5nc(C(C)(C)C)no5)c(F)c4)c23)C1 [Example 284, (S)-N-[(4-{3-[(1-acetylpyrrolidin-3-yl)oxy]-1H-pyrazolo[3,4-b]pyridin-4-yl}-2-fluorophenyl)methyl]-3-tert-butyl-1,2,4-oxadiazole-5-carboxamide]
7 | 312 nM | 613 nM | 774 | – | 0.792 nM | C=CC(=O)N1CCC[C@@H](Nc2n[nH]c3nccc(-c4ccc(C5(NC(=O)c6noc(C(C)(C)C)n6)CC5)cc4)c23)C1 [Example 270, 5-tert-butyl-N-{1-[4-(3-{[(3R)-1-(prop-2-enoyl)piperidin-3-yl]amino}-1H-pyrazolo[3,4-b]pyridin-4-yl)phenyl]cyclopropyl}-1,2,4-oxadiazole-3-carboxamide]
8 | > 10000 nM | > 10000 nM | – | – | > 10000 nM | CC(C)(C)c1ccc(C(=O)NCc2ccc(-c3ccnc4[nH]nc(N[C@H]5CC[C@H](O)CC5)c34)cc2)cc1 [Compound 23, 4-tert-butyl-N-{[4-(3-{[(1r,4r)-4-hydroxycyclohexyl]amino}-1H-pyrazolo[3,4-b]pyridin-4-yl)phenyl]methyl}benzamide]
9 | 46.1 nM | 59.4 nM | – | – | 1.76 nM | C=CC(=O)N1CCC[C@@H](Nc2n[nH]c3nccc(-c4ccc(CNC(=O)c5cc(CC(C)C)on5)c(F)c4)c23)[C@H]1C [Example 293, N-{[2-fluoro-4-(3-{[(2R,3R)-2-methyl-1-(prop-2-enoyl)piperidin-3-yl]amino}-1H-pyrazolo[3,4-b]pyridin-4-yl)phenyl]methyl}-5-(2-methylpropyl)-1,2-oxazole-3-carboxamide]
10 | 71 nM | 200 nM | 347 | – | 0.575 nM | CC#CC(=O)N1CC[C@@H](Nc2n[nH]c3nccc(-c4ccc(C5(NC(=O)c6noc(C(C)(C)C)n6)CC5)cc4)c23)C1 [Compound 28, (R)—N-(1-(4-(3-((1-(but-2-ynoyl)pyrrolidin-3-yl)amino)-1H-pyrazolo[3,4-b]pyridin-4-yl)phenyl)cyclopropyl)-5-(tert-butyl)-1,2,4-oxadiazole-3-carboxamide]
11 | 87 nM | 361 nM | 46 | < 10 nM | 7.83 nM | C=CC(=O)N1CC[C@@H](Nc2n[nH]c3nccc(-c4ccc(CNC(=O)c5noc(CC)n5)c(F)c4)c23)C1 [Example 84, 5-ethyl-N-{[2-fluoro-4-(3-{[(3R)-1-(prop-2-enoyl)pyrrolidin-3-yl]amino}-1H-pyrazolo[3,4-b]pyridin-4-yl)phenyl]methyl}-1,2,4-oxadiazole-3-carboxamide]
12 | 5280 nM | > 10000 nM | – | – | > 10000 nM | CCn1cc(C(=O)NCc2ccc(-c3ccnc4[nH]nc(N[C@H]5CC[C@H](O)CC5)c34)cc2F)cn1 [Compound 20, 1-ethyl-N-{[2-fluoro-4-(3-{[(1r,4r)-4-hydroxycyclohexyl]amino}-1H-pyrazolo[3,4-b]pyridin-4-yl)phenyl]methyl}-1H-pyrazole-4-carboxamide]
13 | > 10000 nM | > 10000 nM | >100 | – | 35.3 nM | CC(C)(C)c1ccc(C(=O)Nc2cccc(-c3ccnc4[nH]nc(N[C@@H]5CCNC5)c34)c2CO)cc1 [Example 150, 4-tert-butyl-N-[2-(hydroxymethyl)-3-(3-{[(3R)-pyrrolidin-3-yl]amino}-1H-pyrazolo[3,4-b]pyridin-4-yl)phenyl]benzamide]
14 | 1790 nM | 1730 nM | 276 | < 10 nM | 6.27 nM | CC(C)(C)c1noc(C(=O)NCc2ccc(-c3ccnc4[nH]nc(N[C@@H]5CCNC5)c34)cc2F)n1 [Example 79, 3-tert-butyl-N-{[2-fluoro-4-(3-{[(3R)-pyrrolidin-3-yl]amino}-1H-pyrazolo[3,4-b]pyridin-4-yl)phenyl]methyl}-1,2,4-oxadiazole-5-carboxamide]
15 | 1550 nM | 698 nM | 340 | < 10 nM | 2.05 nM | C[C@H]1CC[C@@H](Nc2n[nH]c3nccc(-c4ccc(CNC(=O)c5noc(C(C)(C)C)n5)c(F)c4)c23)CN1C(=O)C1CC1 [Example 127, 5-tert-butyl-N-{[4-(3-{[(3R,6S)-1-cyclopropanecarbonyl-6-methylpiperidin-3-yl]amino}-1H-pyrazolo[3,4-b]pyridin-4-yl)-2-fluorophenyl]methyl}-1,2,4-oxadiazole-3-carboxamide]
16 | 885 nM | 1280 nM | – | – | 33.8 nM | CC(C)(C#N)c1cc(C(=O)NCc2ccc(-c3ccnc4[nH]nc(N5CC[C@@H](N)C5)c34)cc2F)no1 [Example 401, N-[(4-{3-[(3R)-3-aminopyrrolidin-1-yl]-1H-pyrazolo[3,4-b]pyridin-4-yl}-2-fluorophenyl)methyl]-5-(2-cyanopropan-2-yl)-1,2-oxazole-3-carboxamide]
